Where two headings read alike, the source gives them in different places.

In assay [1] the test system is HeLa cells. Description: Histone H3 (Ser10) phosphorylation ELISA, abrogation of camptothecin-induced G2 arrest (CHK-1 cellular assay). Type of assay: cell-based. Conditions: Homo sapiens, HeLa cells, camptothecin 8 hrs, then compound with nocodozole 16 hours, read-out: EC50. The method, then:
The Histone H3 phosphorylation ELISA assay detects cells entering mitosis and represents the primary in vitro cell-based assay used to measure the cellular potency of compounds in abrogating the G2 check point induced by DNA damage in HeLa cells or MiaPaCa cells. The candidate substances were assayed for potency in their ability to inhibit camptothecin-induced G2 arrest, as measured by an increase in Histone H3 phosphorylation on Ser10, a marker of entry into mitosis.
Tissue culture plates were seeded with HeLa cells or MiaPaCa Cells and allowed to attach overnight. The cells were then treated with camptothecin to induce DNA damage for 8 hrs. Candidate substances or diluent were then added in the presence of nocodozole for 16 hours. […] The fresh whole cell lysates were then thawed and added to the ELISA plate with shaking for 3 hours. Between all subsequent steps plates were washed 4 times with PBST. Biotinylated phospho Histone H3 (ser10) detection antibody was added for 1 hour, followed by addition of horseradish peroxidase-linked streptavidin secondary antibody for 1 hour. Color development of the antibody was performed with addition of TMB substrate and incubation for 2 minutes on a plate shaker. […] EC50 values were calculated by sigmoid curve fitting using a four-parameter analysis.
(§1) Under the “Ki” column, data entries in the format of “%” are percent inhibition data where no Ki data is available. Data entry under the “EC50” column with an * are data obtained using Mia Paca-2 cells rather than HeLa cells. Data is not available where noted as n/a.
A general note: ELISA stands for enzyme-linked immunosorbent assay.

Assay [2] addresses T1, CHK1 (kinase domain) (Homo sapiens, UniProt O14757).
T1 construct: a solution containing 1 nM of CHK1 (kinase domain)
T1 sequence (O14757 9-265 limits assumed): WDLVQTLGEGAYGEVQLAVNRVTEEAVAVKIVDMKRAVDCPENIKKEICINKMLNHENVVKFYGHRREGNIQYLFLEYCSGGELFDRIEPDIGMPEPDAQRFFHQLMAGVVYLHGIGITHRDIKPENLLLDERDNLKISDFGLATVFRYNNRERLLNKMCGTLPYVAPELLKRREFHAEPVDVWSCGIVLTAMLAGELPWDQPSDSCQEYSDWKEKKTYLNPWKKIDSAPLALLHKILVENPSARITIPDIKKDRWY
Briefly: CHK1 Ki determination, spectrophotometric coupled (pyruvate kinase/lactate dehydrogenase) assay. Particulars: CHK-1 kinase domain; for Ki: 150 uM ATP, 125 uM Syntide 2; for percent inhibition (where no Ki data is available): inhibitor concentration not given. Type of assay: biochemical. The method, then: After 15 min pre-incubation, the enzymatic reaction was initiated by the simultaneous addition of Syntide 2 peptide (125 uM, final concentration) and ATP (150 uM, final concentration). The kinase-catalyzed production of ADP from ATP that accompanied phosphoryl transfer to the substrate Syntide 2 was coupled to the oxidation of NADH through the activities of pyruvate kinase and lactate dehydrogenase. NADH conversion to NAD^+ was monitored by the decrease in absorbance at 340 nm (ε=6.22 cm^−1 mM^−1) using a microplate reader from Molecular Devices Spectormax Plus (Sunnyvale, Calif.) or BMG LABTECH Inc (Offenburg, Germany).
The inhibition of CHK1 was analyzed by fitting the data to the following equation to determine Kiapp:
[formula] where [E]o and [I]o are the active enzyme and inhibitor concentration, respectively; Ki is the inhibition binding constant and Km the Michaelis-Menten constant for ATP; Vi and Vo are the rates of substrate oxidation in the presence of and in the absence of inhibitor, respectively. EC50 Determination (Cellular Assay)
as §1

The term EC50 denotes the concentration giving half of the maximal effect. The term Ki denotes a dissociation constant, usually derived from enzyme kinetics or from competition with a known ligand. `C[C@@H]1CC[C@@H](Nc2cncc(-n3cnc4cc(OCC5(C)COC5)ccc43)n2)CN1` [Example 9, 6-{5-[(3-Methyloxetan-3-yl)methoxy]-1H-benzimidazol-1-yl}-N-[(3R,6R)-6-methylpiperidin-3-yl]pyrazin-2-amine]: the EC50 in assay [1] (HeLa) was at least 10000 nM. The same molecule yielded a Ki in assay [2] of 131 nM.

As to `c1ccn2c(-c3cncc(N[C@@H]4CCNC4)n3)cnc2c1` [Example 10, 6-Imidazo[1,2-a]pyridin-3-yl-N-[(3R)-pyrrolidin-3-yl]pyrazin-2-amine], the EC50 in assay [1] (HeLa) is 244 nM. The Ki in assay [2] is 23.6 nM.

`FC1(F)CCNCC1Nc1cncc(-c2cnc3ccccn23)n1` (stereo not shown) [Example 11, N-(4,4-difluoropiperidin-3-yl)-6-(imidazo[1,2-a]pyridin-3-yl)pyrazin-2-amine]: the EC50 in assay [1] (HeLa) came to 62.1 nM. Besides, the “percent inhibition (where no Ki data is available)” value in assay [2] is given as 101%^.

On to `C[C@@H]1CNC[C@@H]1Nc1cncc(-c2cnc3ccccn23)n1` [Example 12, 6-Imidazo[1,2-a]pyridin-3-yl-N-[(3R,4R)-4-methylpyrrolidin-3-yl]pyrazin-2-amine], for which the EC50 in assay [1] (HeLa) stood at 68.4 nM. The molecule also had a Ki in assay [2] of 27.5 nM.

In the case of `CC(C)Oc1ccc2ncn(-c3cncc(N[C@@H]4CCNC4)n3)c2c1` [Example 15, 6-[6-(propan-2-yloxy)-1H-benzimidazol-1-yl]-N-[(3R)-pyrrolidin-3-yl]pyrazin-2-amine], the 50% effective concentration (EC50) in assay [1] (HeLa) is at least 10000 nM. Further, the “percent inhibition (where no Ki data is available)” value in assay [2] was determined as 43.5%^.

For `c1cnc2c(-c3cncc(N[C@@H]4CCCNC4)n3)cnn2c1` [Example 23, N-[(3R)-piperidin-3-yl]-6-pyrazolo[1,5-a]pyrimidin-3-ylpyrazin-2-amine], the EC50 in assay [1] is at least 10000 nM. For the same molecule, in assay [2], the “percent inhibition (where no Ki data is available)” value is reported as 36.1%^.

For `FC(F)[C@@H]1C[C@@H](Nc2cncc(-c3cnc4ccccn34)n2)CN1` [Example 25, N-[(3R,5S)-5-(difluoromethyl)pyrrolidin-3-yl]-6-(imidazo[1,2-a]pyridin-3-yl)pyrazin-2-amine], the EC50 in assay [1] (HeLa) was at least 10000 nM. Also, the Ki in assay [2] turned out to be 70.2 nM.

As to `F[C@@H]1CCNC[C@@H]1Nc1cncc(-c2cnc3ccccn23)n1` [Example 27, N-[(3S,4R)-4-fluoropiperidin-3-yl]-6-(imidazo[1,2-a]pyridin-3-yl)pyrazin-2-amine], in assay [1] (HeLa), the EC50 was found to be 5580 nM. Further, in assay [2], the Ki worked out at 53.9 nM.

Regarding `F[C@H]1CCNC[C@@H]1Nc1cncc(-c2cnc3ccccn23)n1` [Example 28, N-[(3S,4S)-4-fluoropiperidin-3-yl]-6-imidazo[1,2-a]pyridin-3-ylpyrazin-2-amine], the EC50 in assay [1] (HeLa) stood at 205 nM. The molecule further registered a Ki in assay [2] of 4.77 nM.

As for `C[C@H]1CC[C@@H](Nc2cncc(-c3cnc4ccccn34)n2)CN1` [Example 30, 6-imidazo[1,2-a]pyridin-3-yl-N-[(3R,6S)-6-methylpiperidin-3-yl]pyrazin-2-amine], in assay [1] (HeLa), the EC50 was 634 nM. The molecule also showed an inhibition constant Ki in assay [2] of 147 nM.

Take `C[C@@H]1CC[C@@H](Nc2cncc(-c3cnc4ccccn34)n2)CN1` [Example 31, 6-imidazo[1,2-a]pyridin-3-yl-N-[(3R,6R)-6-methylpiperidin-3-yl]pyrazin-2-amine]: in assay [1] (HeLa), the EC50 is 183 nM. This molecule also showed a Ki in assay [2] of 27.3 nM.

For `C[C@@H]1CNC[C@@H]1Nc1cncc(-n2cnc3cc(-c4cnn(C)c4)ccc32)n1` [Example 34, 6-[5-(1-methyl-1H-pyrazol-4-yl)-1H-benzimidazol-1-yl]-N-[(3R,4R)-4-methylpyrrolidin-3-yl]pyrazin-2-amine], in assay [1] (HeLa), the EC50 was found to be 29 nM. Besides, the Ki in assay [2] worked out at 3.38 nM.

Turning to `CCO[C@H]1CCNC[C@@H]1Nc1cncc(-c2cnc3ccccn23)n1` [Example 35, N-[(3S,4S)-4-ethoxypiperidin-3-yl]-6-(imidazo[1,2-a]pyridin-3-yl)pyrazin-2-amine], the EC50 in assay [1] (HeLa) came to 40.9 nM. The same molecule displayed a Ki in assay [2] of 3.88 nM.

With `Cc1ccn2c(-c3cncc(N[C@@H]4CCCNC4)n3)cnc2c1` [Example 38, 6-(7-Methylimidazo[1,2-a]pyridin-3-yl)-N-[(3R)-piperidin-3-yl]pyrazin-2-amine], the half-maximal effective concentration (EC50) in assay [1] (HeLa) was 40 nM. The same molecule displayed a Ki in assay [2] of 8 nM.

Source of the values: US8518952B2, “6 substituted 2-heterocyclylamino pyrazine compounds as CHK-1 inhibitors” (Pfizer Inc., priority 2008, dated 2013).
